The test system of the assay is γ-secretase. Put plainly: Cellular γ-secretase assay (inhibition of Aβ42 secretion). In kind it is cell-based. Particulars: human neuroglioma H4 cells overexpressing human APP, 22 hrs incubation. In a few lines: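 H4 neuroglioma cells overexpressing human APP got a ten-point compound dilution (0.4% DMSO final) for 22 h at 37 °C. Secreted Aβ42 in the supernatant was measured by electrochemiluminescence sandwich immunoassay (capture biotinylated 6E10, detection ruthenylated BAP15). IC50 came from a nonlinear regression fit.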

pEC50: −log10 of the molar value.

We go through 22 compounds from patent US20110190269A1, “GAMMA SECRETASE MODULATORS” (priority 2010, published 2011).

On to `COc1cc(Nc2nc3c(N4CCC(F)(F)CC4)cccn3n2)ccc1-n1cnc(C)c1` [Example 141, 8-(4,4-difluoropiperidin-1-yl)-N-(3-methoxy-4-(4-methyl-1H-imidazol-1-yl)phenyl)-[1,2,4]triazolo[1,5-a]pyridin-2-amine], for which the pEC50 was 6.43.
For `CCN(CC)c1cccc2nc(Nc3ccc(-n4cnc(C)c4)c(OC)c3)nn12` [Example 34, N5,N5-Diethyl-N2-[3-methoxy-4-(4-methyl-imidazol-1-yl)-phenyl]-[1,2,4]triazolo[1,5-a]pyridine-2,5-diamine], the pEC50 is 6.19.
Under `COc1cc(Nc2nc3c(-c4ccc(F)cc4F)cc(C)cn3n2)ccc1-n1cnc(C)c1` [Example 74, 8-(2,4-Difluorophenyl)-N-(3-methoxy-4-(4-methyl-1H-imidazol-1-yl)phenyl)-6-methyl-[1,2,4]triazolo[1,5-a]pyridin-2-amine] stands 7.46.
The compound `COc1cc(Nc2nc3nc(C(F)(F)F)cc(-c4ccc(Cl)cc4)n3n2)ccc1-n1cnc(C)c1` [Example 20, [7-(4-Chloro-phenyl)-5-trifluoromethyl-[1,2,4]triazolo[1,5-a]pyrimidin-2-yl]-[3-methoxy-4-(4-methyl-imidazol-1-yl)-phenyl]-amine acetate] gave a pEC50 of 6.97.
For the compound `COc1cc(Nc2nc3c(C4=CCN(C(=O)OC(C)(C)C)CC4)cc(C)cn3n2)ccc1-n1cnc(C)c1` [Example 96, tert-Butyl 4-(2-(3-methoxy-4-(4-methyl-1H-imidazol-1-yl)phenylamino)-6-methyl-[1,2,4]triazolo[1,5-a]pyridin-8-yl)-5,6-dihydropyridine-1(2H)-carboxylate], the pEC50 is 7.03.
Turning to `COc1cc(Nc2nc3c(-c4ccc(F)cc4)nccn3n2)ccc1-n1cnc(C)c1` [Example 11, [8-(4-Fluoro-phenyl)-[1,2,4]triazolo[1,5-a]pyrazin-2-yl]-[3-methoxy-4-(4-methyl-imidazol-1-yl)-phenyl]-amine], the negative-log EC50 (pEC50) was 6.24.
Take `COCc1cnc(C2CCCCC2)n2nc(Nc3ccc(-n4cnc(C)c4)c(OC)c3)nc12` [Example 28, (5-Cyclohexyl-8-methoxymethyl-[1,2,4]triazolo[1,5-c]pyrimidin-2-yl)-[3-methoxy-4-(4-methyl-imidazol-1-yl)-phenyl]-amine]: the pEC50 is 5.83. Against the preceding compound, the pEC50 is 0.41 log units lower.
Regarding `COc1cc(Nc2nc3c(-c4ccc(F)c(C(F)(F)F)c4)cc(C)cn3n2)ccc1-n1cnc(C)c1` [Example 75, 8-(4-Fluoro-3-(trifluoromethyl)phenyl)-N-(3-methoxy-4-(4-methyl-1H-imidazol-1-yl)phenyl)-6-methyl-[1,2,4]triazolo[1,5-a]pyridin-2-amine], the pEC50 is 7.72.
In turn, `COc1cc(Nc2nc3n(n2)CCN(C(=O)C(C)C)C3c2ccc(F)cc2)ccc1-n1cnc(C)c1` (stereo not shown) [Example 59, 1-(8-(4-Fluorophenyl)-2-(3-methoxy-4-(4-methyl-1H-imidazol-1-yl)phenylamino)-5,6-dihydro-[1,2,4]triazolo[1,5-a]pyrazin-7(8H)-yl)-2-methylpropan-1-one] showed a pEC50 of 6.23.
Take `COc1cc(Nc2nc3c(Oc4cccc(Cl)c4)cccn3n2)ccc1-n1cnc(C)c1` [Example 137, 8-(3-chlorophenoxy)-N-(3-methoxy-4-(4-methyl-1H-imidazol-1-yl)phenyl)-[1,2,4]triazolo[1,5-a]pyridin-2-amine]: the pEC50 is 6.58.
The compound `COc1cc(Nc2nc3n(n2)CCCC3c2ccc(F)cc2)ccc1-n1cnc(C)c1` (single isomer, unassigned) [Example 52] gave a pEC50 of 6.55.
Take `COc1cc(Nc2nc3c(-c4ccc(F)cc4)cccn3n2)ccc1-c1ccnc(C)c1` [Example 53, 8-(4-Fluorophenyl)-N-(3-methoxy-4-(2-methylpyridin-4-yl)phenyl)-[1,2,4]triazolo[1,5-a]pyridin-2-amine]: the pEC50 is 6.92.
For the compound `CCCc1ncc(CN2CCOCC2)c2nc(Nc3ccc(-n4cnc(C)c4)c(OC)c3)nn12` [Example 32, [3-Methoxy-4-(4-methyl-imidazol-1-yl)-phenyl]-(8-morpholin-4-ylmethyl-5-propyl-[1,2,4]triazolo[1,5-c]pyrimidin-2-yl)-amine], the pEC50 was 6.06.
Compound `COc1cc(Nc2nc3c(-c4ccc(F)c(F)c4)cccn3n2)ccc1-n1cnc(C)c1` [Example 126, [8-(3,4-Difluoro-phenyl)-[1,2,4]triazolo[1,5-a]pyridin-2-yl]-[3-methoxy-4-(4-methyl-imidazol-1-yl)-phenyl]-amine] had a pEC50 of 7.49.
The value for `COc1cc(Nc2nc3c(-c4ccc(F)c(F)c4)cc(Cl)cn3n2)ccc1-n1cnc(C)c1` [Example 81, 6-Chloro-8-(3,4-difluorophenyl)-N-(3-methoxy-4-(4-methyl-1H-imidazol-1-yl)phenyl)-[1,2,4]triazolo[1,5-a]pyridin-2-amine] was 7.66.
`COc1cc(Nc2nc3nccc(-c4ccc(OC(F)(F)F)cc4)n3n2)ccc1-n1cnc(C)c1` [Example 23, [3-Methoxy-4-(4-methyl-imidazol-1-yl)-phenyl]-[7-(4-trifluoromethoxy-phenyl)-[1,2,4]triazolo[1,5-a]pyrimidin-2-yl]-amine acetate] showed a pEC50 of 6.72.
`COc1cc(Nc2nc3c(OC)cccn3n2)ccc1-n1cnc(C)c1` [Example 7, [3-Methoxy-4-(4-methyl-imidazol-1-yl)-phenyl]-(8-methoxy-[1,2,4]triazolo[1,5-a]pyridin-2-yl)-amine] showed a pEC50 of 6.03.
Under `COc1cc(Nc2nc3c(-c4ccc(Cl)cc4)cccn3n2)ccc1-c1ccnc(C)c1` [Example 127, [8-(4-Chloro-phenyl)-[1,2,4]triazolo[1,5-a]pyridin-2-yl]-[3-methoxy-4-(2-methyl-pyridin-4-yl)-phenyl]-amine] stands 7.41; under `COc1cc(Nc2nc3n(n2)C(c2ccccc2)CCO3)ccc1-n1cnc(C)c1` (stereo not shown) [Example 109, N-(3-Methoxy-4-(4-methyl-1H-imidazol-1-yl)phenyl)-7-phenyl-6,7-dihydro-5H-[1,2,4]triazolo[5,1-b][1,3]oxazin-2-amine], 6.57.
The value for `COc1cc(Nc2nc3c(-c4ccc(F)cc4Cl)cc(C)cn3n2)ccc1-n1cnc(C)c1` [Example 65, [8-(2-Chloro-4-fluoro-phenyl)-6-methyl-[1,2,4]triazolo[1,5-a]pyridin-2-yl]-[3-methoxy-4-(4-methyl-imidazol-1-yl)-phenyl]-amine] was 7.62; that for `COc1cc(Nc2nc3c(-c4ccc(F)c(F)c4)ccc(C(C)(C)O)n3n2)ccc1-n1cnc(C)c1` [Example 145, 2-{8-(3,4-Difluoro-phenyl)-2-[3-methoxy-4-(4-methyl-imidazol-1-yl)-phenylamino]-[1,2,4]triazolo[1,5-a]pyridin-5-yl}-propan-2-ol] was 7.57; that for `COc1cc(Nc2nc3c(N4CCOCC4)cccn3n2)ccc1-n1cnc(C)c1` [Example 101, N-(3-Methoxy-4-(4-methyl-1H-imidazol-1-yl)phenyl)-8-morpholino-[1,2,4]triazolo[1,5-a]pyridin-2-amine] was 6.64.

By pEC50 is commonly meant the negative decadic logarithm of the EC50, by convention in mol/L. A high value points to a low EC50.
